Laboratory results reported in article PMC10241523 (The Journal of Venomous Animals and Toxins Including …, 2023).
Like-named read-outs stand apart in the source and are kept apart here. Where a SMILES comes first, the peptide text is derived from it. Bridges are numbered along the chain shown (N, C = ends).

Tests used:
[1] = system: potassium channel currents in rat DRG neurons; type: cell-based; conditions: 10 μM
[2] = system: calcium channel currents in rat DRG neurons; type: cell-based; conditions: 10 μM
hNaV1.8 = type: cell-based, human
human CaV2.2 (hCaV2.2) = type: cell-based; conditions: 10 μM
ND7/23 cells = conditions: 48 h
[3] = system: sodium channel currents in rat DRG neurons; type: cell-based; conditions: 10 μM; n = 3
human CaV1.2 (hCaV1.2) [4] = target: T1, human CaV1.2 (hCaV1.2) (Homo sapiens, UniProt Q13936); conditions: pH 7.4
T1 sequence (Q13936 whole entry, looked up): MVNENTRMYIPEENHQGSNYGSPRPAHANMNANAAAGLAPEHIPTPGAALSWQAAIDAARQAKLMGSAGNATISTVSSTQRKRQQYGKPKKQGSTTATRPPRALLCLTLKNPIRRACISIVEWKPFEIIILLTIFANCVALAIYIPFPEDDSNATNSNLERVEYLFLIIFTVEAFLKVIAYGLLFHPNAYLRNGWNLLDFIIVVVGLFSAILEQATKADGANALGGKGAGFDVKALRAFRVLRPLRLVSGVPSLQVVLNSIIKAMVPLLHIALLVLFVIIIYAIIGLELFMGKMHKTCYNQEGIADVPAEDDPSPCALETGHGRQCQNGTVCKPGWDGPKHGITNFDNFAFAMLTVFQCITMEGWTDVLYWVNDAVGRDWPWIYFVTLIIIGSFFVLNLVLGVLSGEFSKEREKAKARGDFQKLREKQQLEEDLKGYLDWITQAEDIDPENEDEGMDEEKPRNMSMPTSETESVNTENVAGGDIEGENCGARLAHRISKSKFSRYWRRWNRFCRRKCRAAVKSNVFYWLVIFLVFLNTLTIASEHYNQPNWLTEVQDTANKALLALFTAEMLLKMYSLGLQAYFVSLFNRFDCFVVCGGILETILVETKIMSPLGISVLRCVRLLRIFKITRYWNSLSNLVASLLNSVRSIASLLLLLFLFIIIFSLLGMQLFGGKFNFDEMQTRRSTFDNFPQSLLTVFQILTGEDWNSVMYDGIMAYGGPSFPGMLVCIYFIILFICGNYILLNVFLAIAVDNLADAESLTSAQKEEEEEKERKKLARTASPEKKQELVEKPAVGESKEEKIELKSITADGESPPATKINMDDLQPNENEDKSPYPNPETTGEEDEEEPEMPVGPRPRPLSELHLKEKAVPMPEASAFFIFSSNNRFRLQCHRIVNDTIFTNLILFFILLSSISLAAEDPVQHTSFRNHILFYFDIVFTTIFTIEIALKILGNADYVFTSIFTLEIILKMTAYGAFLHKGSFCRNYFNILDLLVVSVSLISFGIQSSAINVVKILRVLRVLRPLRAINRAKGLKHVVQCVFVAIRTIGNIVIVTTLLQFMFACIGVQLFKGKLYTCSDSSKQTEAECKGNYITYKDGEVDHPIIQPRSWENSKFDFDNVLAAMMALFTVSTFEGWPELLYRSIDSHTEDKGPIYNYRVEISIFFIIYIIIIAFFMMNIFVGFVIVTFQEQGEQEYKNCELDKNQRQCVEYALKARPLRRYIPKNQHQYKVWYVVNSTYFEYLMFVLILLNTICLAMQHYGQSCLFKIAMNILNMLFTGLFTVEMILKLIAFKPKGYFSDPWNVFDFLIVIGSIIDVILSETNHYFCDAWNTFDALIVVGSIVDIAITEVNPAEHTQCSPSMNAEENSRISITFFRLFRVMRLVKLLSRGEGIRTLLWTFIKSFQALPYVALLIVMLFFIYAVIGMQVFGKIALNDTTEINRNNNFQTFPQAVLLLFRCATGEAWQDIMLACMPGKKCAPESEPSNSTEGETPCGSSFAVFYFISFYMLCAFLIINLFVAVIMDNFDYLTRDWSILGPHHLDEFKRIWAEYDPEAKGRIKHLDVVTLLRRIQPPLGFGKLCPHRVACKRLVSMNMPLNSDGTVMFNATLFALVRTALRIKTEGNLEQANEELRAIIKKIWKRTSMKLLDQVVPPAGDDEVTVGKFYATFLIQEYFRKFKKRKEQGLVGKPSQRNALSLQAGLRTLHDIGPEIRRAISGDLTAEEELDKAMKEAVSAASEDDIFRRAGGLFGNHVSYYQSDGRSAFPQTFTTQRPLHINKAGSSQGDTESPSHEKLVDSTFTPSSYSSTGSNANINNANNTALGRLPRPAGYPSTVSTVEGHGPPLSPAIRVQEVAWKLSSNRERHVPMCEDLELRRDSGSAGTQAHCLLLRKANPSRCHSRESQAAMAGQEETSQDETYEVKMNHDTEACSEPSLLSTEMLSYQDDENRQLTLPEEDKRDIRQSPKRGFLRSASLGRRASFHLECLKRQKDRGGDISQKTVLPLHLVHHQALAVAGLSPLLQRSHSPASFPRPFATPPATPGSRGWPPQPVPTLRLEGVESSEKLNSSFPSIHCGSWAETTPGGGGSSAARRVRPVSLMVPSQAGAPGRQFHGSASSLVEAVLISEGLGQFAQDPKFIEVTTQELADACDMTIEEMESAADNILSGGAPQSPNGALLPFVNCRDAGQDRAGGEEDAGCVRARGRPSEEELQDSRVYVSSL

human NaV1.3 (hNaV1.3) = type: cell-based; conditions: 10 μM
human CaV1.2 (hCaV1.2) [5] = target: T1, human CaV1.2 (hCaV1.2); assay: cell-based; conditions: HEK293, read-out: inhibition of hCaV1.2 currents
Kunming mice = conditions: mouse, in vivo
human NaV1.7 (hNaV1.7) = type: cell-based; conditions: 10 μM
calcium currents = conditions: cited from earlier work
[6] = system: voltage-gated calcium channels; conditions: cited from earlier work

For CC[C@H](C)[C@H](NC(=O)[C@@H]1CSSC[C@@H]2NC(=O)[C@H](Cc3ccc(O)cc3)NC(=O)[C@H]([C@@H](C)CC)NC(=O)[C@H](C(C)C)NC(=O)CNC(=O)[C@H](CC(C)C)NC(=O)[C@H](CC(C)C)NC(=O)[C@H](CO)NC(=O)[C@H](C)NC(=O)[C@@H]3CCCN3C(=O)[C@@H]3CSSC[C@H](NC(=O)[C@H]([C@@H](C)CC)NC(=O)[C@H](CC(C)C)NC(=O)CNC(=O)[C@H](CCC(=O)O)NC(=O)[C@H](CSSC[C@H](NC(=O)[C@@H](N)CC(=O)O)C(=O)N[C@@H](Cc4c[nH]cn4)C(=O)N[C@@H](CCC(=O)O)C(=O)N[C@@H](CCCNC(=N)N)C(=O)N[C@@H](Cc4c[nH]c5ccccc45)C(=O)N[C@@H](CC(=O)O)C(=O)N[C@@H](Cc4c[nH]c5ccccc45)C(=O)N3)NC2=O)C(=O)N[C@@H](Cc2ccccc2)C(=O)N[C@@H]([C@@H](C)CC)C(=O)N[C@@H](C)C(=O)N[C@@H](Cc2ccccc2)C(=O)N1)C(=O)O [Tx6.7] (H-DCHERWDWCPASLLGVIYCCEGLICFIAFCI-OH; disulfide 2-20, 9-25, 19-30), the “inhibition of peak potassium currents” value [1] was 22.33 ± 7.81%, the “inhibition of peak calcium currents” value [2] was 59.29 ± 2.34% and the “shift in the current-voltage relationship, calcium currents” value ([2]; n = 3) was “did not induce a shift in the current-voltage relationship of calcium currents”. The “inhibition of hNaV1.8 currents” value (hNaV1.8) was 7.30 ± 3.38%, the “inhibition of hCaV2.2 currents” value (human CaV2.2 (hCaV2.2)) was 24.67 ± 0.91% and the “cytotoxicity against ND7/23 cells” value (ND7/23 cells) was “no significant cytotoxicity”. For the same compound, the Cell viability (ND7/23 cells; 0.01 μM) was 101.95%, the Cell viability (ND7/23 cells; 0.1 μM) was 105.01% and the Cell viability (ND7/23 cells; 1 μM) was 99.18%. The Cell viability (ND7/23 cells; 10 μM) was 98.60%, the Cell viability (ND7/23 cells; 100 μM) was 94.80% and the “Cell viability at all detected concentrations” value (ND7/23 cells; 100 μM) was “more than 94%”. The “inhibitory effects on the sodium currents in rat DRG neurons” value [3] was “no inhibitory effects”, the “shift in the current-voltage relationship, sodium currents” value [3] was “did not induce a shift in the current-voltage relationship” and the IC50 (human CaV1.2 (hCaV1.2) [4]) was 9.63 ± 1.12 µM. The “effects on hNaV1.3 currents” value (human NaV1.3 (hNaV1.3)) was “no obvious effects”, the inhibition at 10 µM (human CaV1.2 (hCaV1.2) [5]) was 56.6 ± 3.2% and the pain threshold (Kunming mice) was “increased”. For the same compound, the “pain threshold increment percentage (maximum)” value (Kunming mice) was 98.91%, the “time of maximum analgesic effect” value (Kunming mice) was 2 h and the “effects on hNaV1.7 currents” value (human NaV1.7 (hNaV1.7)) was “no obvious effects”.
In the case of Ziconotide, the “inhibition of calcium currents (ω family conotoxins)” value (calcium currents) is listed as “inhibiting calcium currents”, the “analgesic effect compared with Tx6.7” value (Kunming mice) is listed as “better analgesic effect than Tx6.7” and the “block of voltage-gated calcium channels (ω family)” value [6] is listed as “blockers of voltage-gated calcium channels”.
